Results on 1 compound are retold here after patent publication US12070457B2, “Substituted pyridines, pyridazines, pyrimidines, and 1,2,3-triazines as bruton's tyrosine kinase inhibitors” (HUTCHISON MEDIPHARMA LIMITED, priority 2020, dated 2024).

Each structure is given as a SMILES string. Where two headings read alike, the source gives them in different places.

Series [1] is described as follows: Stability test in liver microsomes (mouse). In kind it is in vitro ADME. To be noted: 1 μM compound. The method in brief:
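Compound (1 μM final) incubated 30 min at 37 °C with male CD-1 mouse or male SD rat pooled liver microsomes (0.5 mg/mL) in 50 mM phosphate buffer with 3 mM MgCl2, 1 mM EDTA and NADPH-regenerating system. Quenched with acetonitrile containing internal standard; LC-MS/MS gives percent remaining relative to 0-min sample.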
A general note: Microsomes from liver hold many membrane-bound enzymes, among them those of drug oxidation.

Series [2] is described as follows: Study on in vivo pharmacokinetics in mice. On the set-up: species or system mouse. Particulars: for concentration at 8 h / concentration at 24 h: male, ICR, mouse. An excerpt:
Example 6 Study on In Vivo Pharmacokinetics in Mice
Solutol HS15 was purchased from BASF, Germany, ethanol (anhydrous) was purchased from Nanjing Chemical Reagent Co., Ltd., physiological saline was purchased from Huayu (Wuxi) Pharmaceutical Co., Ltd., dimethyl sulfoxide (DMSO) and sodium carboxymethyl cellulose 800-1200 (CMC-Na) were purchased from Sinopharm Chemical Reagent Co., Ltd.
Preparation of ethanol/Solutol mixed solution (1:1, v/v): taking an appropriate amount of Solutol HS15 in a centrifuge tube and placing in a 37° C. water bath until dissolved, placing on the bench top to room temperature, taking 1 mL of Solutol in a centrifuge tube containing 1 mL of ethanol and mixing well to obtain the mixed solution.
Taking an appropriate amount of stock solution and placing in a blank centrifuge tube, adding an appropriate amount of ethanol/Solutol mixed solution prepared in advance, vortexing, then adding an appropriate amount of physiological saline, and mixing well until a transparent liquid.
3. Administration to Animals and Sample Collection:
Male ICR mice were purchased from Shanghai Lingchang Biotechnology Co., Ltd. 18 mice were randomly divided into intravenous administration group and intragastric administration group. The mice were fasted overnight before administration. The mice were withheld food but allowed to access water freely within 4 hours after administration, and allowed to freely access food and water after 4 hours. After anesthesia with isoflurane, blood was collected from the retroorbital venous plexus and placing in an centrifuge tube containing anticoagulant, and the centrifuge tube was stored in an box containing wet ice until the plasma was centrifuged.
The plasma samples were pre-treated and then analyzed by liquid chromatography-tandem mass spectrometry (LC-MS/MS), the instrument model was API5500. The analytical chromatographic column was Waters XSELECT HSS T3 C18 column (50×2.1 mm, 2.5 μm). In the mobile phases, deionized water containing 0.1% formic acid and 0.1% acetonitrile was used as the aqueous phase and acetonitrile containing 0.1% formic acid was used as the organic phase. The concentrations of the compound in the samples were determined as follows. Firstly, a standard curve was established, and the peak area ratios of the compound 19 to the internal standard in the standard curve were used as indexes. The theoretical concentrations of compound 19 and the peak area ratios of compound 19 to the internal standard were fitted with a quadratic regression equation to obtain the regression equation. The sample concentrations were calculated by measuring the peak area ratio of the compound of the test sample to the internal standard according to the standard curve.

As for `C[C@H]1CN(C2COC2)CCN1c1ccc(Nc2cc(-c3ccnc(-n4ccn5c6c(cc5c4=O)CC(C)(C)C6)c3CO)cn(C)c2=O)nc1` [Compound 19], the “stability in mouse liver microsomes compared with reference GDC-0853” value in series [1] (0.5 mg/mL liver microsomes, 30 minutes incubation) is “better than that of the reference GDC-0853”. Further, the “MLM, percentage of remaining compound after 30 minutes of incubation” value in series [1] (mouse liver microsomes, 30 min) was determined as 91.8%. Moreover, the concentration at 8 h was found to be 555 ng/mL in series [2] (oral, mice, intragastric, 10 mg/kg, plasma at 8 h, read-out: C8 h) and 555 ng/mL in series [2] (plasma, 10 mg/kg, oral administration in mice, 8 h, read-out: plasma concentration at 8 h). For the same compound, the concentration at 24 h was 8.5 ng/mL in series [2] (oral, mice, intragastric, 10 mg/kg, plasma at 24 h, read-out: C24 h) and 8.5 ng/mL in series [2] (plasma, 10 mg/kg, oral administration in mice, 24 h, lower limit of quantification 2.4 ng/mL, read-out: plasma concentration at 24 h). This compound displayed a T1/2 in series [2] (mice, intragastric, 10 mg/kg) of 2.7 h. In addition, the “plasma exposure (AUC0-∞) relative to reference GDC-0853” value in series [2] (oral administration in mice) was “about 1.7 times”. Besides, the “plasma concentration at 8 h relative to GDC-0853” value in series [2] (oral administration in mice, 8 h) is on record as “about 3.9 folds”.
